# Assays:
# [1] = biological target: Beta-2 adrenergic receptor (Homo sapiens, UniProt P07550); assay type: functional, cell-based
# [2] = biological target: Voltage-gated inwardly rectifying potassium channel KCNH2 (Homo sapiens, UniProt Q12809); assay type: functional; conditions: read-out: AC50
# Mu-type opioid receptor [3] = biological target: T1, Mu-type opioid receptor (Homo sapiens, UniProt P35372); test: biochemical; assay type: functional
# [4] = biological target: Neuronal acetylcholine receptor subunit alpha-4 (Homo sapiens, UniProt P43681)
# Neuronal acetylcholine receptor subunit alpha-4, sequence (P43681 whole entry): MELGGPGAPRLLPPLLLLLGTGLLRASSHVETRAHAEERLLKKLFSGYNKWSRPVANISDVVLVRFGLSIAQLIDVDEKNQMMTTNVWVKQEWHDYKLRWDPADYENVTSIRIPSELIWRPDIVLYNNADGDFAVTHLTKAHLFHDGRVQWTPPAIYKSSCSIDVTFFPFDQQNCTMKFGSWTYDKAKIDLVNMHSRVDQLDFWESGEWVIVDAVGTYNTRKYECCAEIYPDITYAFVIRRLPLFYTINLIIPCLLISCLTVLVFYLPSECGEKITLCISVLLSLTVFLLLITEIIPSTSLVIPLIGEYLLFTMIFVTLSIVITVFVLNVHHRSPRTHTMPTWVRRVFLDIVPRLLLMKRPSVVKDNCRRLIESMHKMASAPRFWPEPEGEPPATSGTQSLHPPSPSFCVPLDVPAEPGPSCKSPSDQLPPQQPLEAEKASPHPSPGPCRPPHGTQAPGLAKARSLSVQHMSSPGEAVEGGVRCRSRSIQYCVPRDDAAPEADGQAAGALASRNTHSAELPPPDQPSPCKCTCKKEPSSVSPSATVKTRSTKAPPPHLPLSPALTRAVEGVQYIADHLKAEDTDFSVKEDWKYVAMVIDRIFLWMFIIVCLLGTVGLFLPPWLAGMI
# Adenosine receptor A1 = biological target: T2, Adenosine receptor A1 (Homo sapiens, UniProt P30542)
# T2 sequence (P30542 whole entry): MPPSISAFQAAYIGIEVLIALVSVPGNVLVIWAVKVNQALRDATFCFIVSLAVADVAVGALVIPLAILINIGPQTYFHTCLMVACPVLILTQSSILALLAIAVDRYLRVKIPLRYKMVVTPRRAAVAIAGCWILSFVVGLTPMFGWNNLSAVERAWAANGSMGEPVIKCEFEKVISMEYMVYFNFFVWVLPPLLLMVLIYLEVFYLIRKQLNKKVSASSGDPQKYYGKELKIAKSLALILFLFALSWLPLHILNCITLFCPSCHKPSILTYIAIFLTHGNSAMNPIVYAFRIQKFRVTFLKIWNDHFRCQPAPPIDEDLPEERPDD
# [5] = biological target: Glutamate receptor ionotropic, NMDA 1 (Rattus norvegicus, UniProt P35439)
# [6] = biological target: T3, 5-hydroxytryptamine receptor 3A (Homo sapiens, UniProt P46098); assay type: functional
# T3 sequence (P46098 whole entry): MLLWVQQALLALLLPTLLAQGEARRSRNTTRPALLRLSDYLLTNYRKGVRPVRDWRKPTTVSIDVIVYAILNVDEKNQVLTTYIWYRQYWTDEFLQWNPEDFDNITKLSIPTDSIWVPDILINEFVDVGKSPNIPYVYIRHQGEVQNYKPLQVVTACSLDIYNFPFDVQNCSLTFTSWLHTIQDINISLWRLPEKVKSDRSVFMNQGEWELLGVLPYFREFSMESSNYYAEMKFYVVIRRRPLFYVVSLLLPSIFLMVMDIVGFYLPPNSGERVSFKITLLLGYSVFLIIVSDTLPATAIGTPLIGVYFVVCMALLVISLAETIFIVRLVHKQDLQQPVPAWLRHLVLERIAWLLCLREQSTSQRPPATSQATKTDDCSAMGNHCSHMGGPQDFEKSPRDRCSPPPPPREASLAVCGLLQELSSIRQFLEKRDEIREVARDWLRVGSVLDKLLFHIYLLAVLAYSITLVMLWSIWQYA
# [7] = biological target: T4, 5-hydroxytryptamine receptor 1A (Homo sapiens, UniProt P08908); assay type: functional, cell-based
# T4 sequence (P08908 whole entry): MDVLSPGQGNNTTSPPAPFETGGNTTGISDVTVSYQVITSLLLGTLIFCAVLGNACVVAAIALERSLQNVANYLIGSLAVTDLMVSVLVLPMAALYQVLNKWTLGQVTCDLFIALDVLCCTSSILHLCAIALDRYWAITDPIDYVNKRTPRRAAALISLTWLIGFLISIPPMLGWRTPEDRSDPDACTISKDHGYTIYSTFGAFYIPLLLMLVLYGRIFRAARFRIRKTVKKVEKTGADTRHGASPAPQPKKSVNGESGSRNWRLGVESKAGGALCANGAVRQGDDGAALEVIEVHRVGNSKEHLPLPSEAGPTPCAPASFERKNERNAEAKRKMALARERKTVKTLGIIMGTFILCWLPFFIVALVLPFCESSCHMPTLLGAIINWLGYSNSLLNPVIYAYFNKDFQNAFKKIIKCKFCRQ
# [8] = biological target: T5, Alpha-1A adrenergic receptor (Homo sapiens, UniProt P35348)
# T5 sequence (P35348 whole entry): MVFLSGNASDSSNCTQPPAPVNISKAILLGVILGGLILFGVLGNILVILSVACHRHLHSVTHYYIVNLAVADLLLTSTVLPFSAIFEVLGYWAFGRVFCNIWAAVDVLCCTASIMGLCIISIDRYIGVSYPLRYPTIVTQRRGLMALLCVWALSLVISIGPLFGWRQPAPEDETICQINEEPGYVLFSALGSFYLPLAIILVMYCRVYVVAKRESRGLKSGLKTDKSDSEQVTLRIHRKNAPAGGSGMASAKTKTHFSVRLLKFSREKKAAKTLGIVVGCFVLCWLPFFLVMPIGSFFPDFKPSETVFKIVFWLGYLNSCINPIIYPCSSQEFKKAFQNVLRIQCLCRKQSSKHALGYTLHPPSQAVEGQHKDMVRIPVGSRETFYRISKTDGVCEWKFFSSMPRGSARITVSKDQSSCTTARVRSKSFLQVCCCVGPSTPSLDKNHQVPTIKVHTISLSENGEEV
# Mu-type opioid receptor [9] = biological target: T1, Mu-type opioid receptor
# Estrogen receptor = biological target: T6, Estrogen receptor (Homo sapiens, UniProt P03372)
# T6 sequence (P03372 whole entry): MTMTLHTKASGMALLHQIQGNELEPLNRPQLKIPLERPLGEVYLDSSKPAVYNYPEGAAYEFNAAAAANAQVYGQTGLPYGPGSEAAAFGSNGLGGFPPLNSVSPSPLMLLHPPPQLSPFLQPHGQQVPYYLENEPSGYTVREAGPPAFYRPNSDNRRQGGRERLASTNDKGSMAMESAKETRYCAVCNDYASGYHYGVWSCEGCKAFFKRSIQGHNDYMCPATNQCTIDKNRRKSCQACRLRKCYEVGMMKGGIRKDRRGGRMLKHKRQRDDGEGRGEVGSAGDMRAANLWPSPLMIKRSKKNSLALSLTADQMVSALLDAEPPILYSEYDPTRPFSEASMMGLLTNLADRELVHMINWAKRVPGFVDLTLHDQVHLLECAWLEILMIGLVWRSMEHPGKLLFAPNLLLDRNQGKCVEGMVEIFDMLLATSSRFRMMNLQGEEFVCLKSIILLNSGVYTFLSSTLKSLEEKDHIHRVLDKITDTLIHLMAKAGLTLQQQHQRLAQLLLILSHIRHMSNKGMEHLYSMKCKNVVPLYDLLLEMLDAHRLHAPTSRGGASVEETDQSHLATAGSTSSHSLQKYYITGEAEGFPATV
# Melanocortin receptor 4 = Melanocortin receptor 4 (Homo sapiens, UniProt P32245)
# Melanocortin receptor 4, sequence (P32245 whole entry): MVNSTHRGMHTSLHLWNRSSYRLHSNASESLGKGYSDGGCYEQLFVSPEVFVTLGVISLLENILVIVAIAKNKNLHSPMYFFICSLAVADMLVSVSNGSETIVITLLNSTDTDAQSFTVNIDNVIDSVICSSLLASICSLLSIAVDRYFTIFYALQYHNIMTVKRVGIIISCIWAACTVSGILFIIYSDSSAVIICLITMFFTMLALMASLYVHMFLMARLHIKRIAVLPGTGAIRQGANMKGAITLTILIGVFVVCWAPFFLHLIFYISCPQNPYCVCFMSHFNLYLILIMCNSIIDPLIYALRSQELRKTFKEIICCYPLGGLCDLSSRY
# Cannabinoid receptor 1 = Cannabinoid receptor 1 (Homo sapiens, UniProt P21554)
# Cannabinoid receptor 1, sequence (P21554 whole entry): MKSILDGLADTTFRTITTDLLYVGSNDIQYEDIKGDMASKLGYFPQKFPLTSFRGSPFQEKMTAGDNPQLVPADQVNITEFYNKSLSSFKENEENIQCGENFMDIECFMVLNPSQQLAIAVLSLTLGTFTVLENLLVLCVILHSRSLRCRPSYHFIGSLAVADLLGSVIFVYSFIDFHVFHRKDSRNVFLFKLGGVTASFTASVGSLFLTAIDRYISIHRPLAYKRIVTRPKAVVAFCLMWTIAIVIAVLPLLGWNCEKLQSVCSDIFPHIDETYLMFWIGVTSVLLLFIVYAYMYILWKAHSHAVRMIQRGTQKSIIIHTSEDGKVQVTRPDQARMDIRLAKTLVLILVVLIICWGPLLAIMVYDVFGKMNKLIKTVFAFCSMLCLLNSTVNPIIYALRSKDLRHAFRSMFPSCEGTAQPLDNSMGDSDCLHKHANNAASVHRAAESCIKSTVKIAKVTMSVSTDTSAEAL
# Note: assay procedure not described here.
# T1 sequence (P35372 whole entry): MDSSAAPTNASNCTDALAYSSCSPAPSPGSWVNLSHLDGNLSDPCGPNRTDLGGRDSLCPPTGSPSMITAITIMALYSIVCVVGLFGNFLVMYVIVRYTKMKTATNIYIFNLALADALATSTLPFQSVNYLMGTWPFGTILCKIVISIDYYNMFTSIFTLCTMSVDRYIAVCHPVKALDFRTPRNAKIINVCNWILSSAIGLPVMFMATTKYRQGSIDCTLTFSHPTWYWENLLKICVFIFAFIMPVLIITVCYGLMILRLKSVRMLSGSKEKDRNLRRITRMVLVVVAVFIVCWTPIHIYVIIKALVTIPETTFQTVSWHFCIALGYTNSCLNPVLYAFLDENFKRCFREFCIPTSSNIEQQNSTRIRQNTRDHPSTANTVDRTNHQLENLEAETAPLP
# Voltage-gated inwardly rectifying potassium channel KCNH2, sequence (Q12809 whole entry): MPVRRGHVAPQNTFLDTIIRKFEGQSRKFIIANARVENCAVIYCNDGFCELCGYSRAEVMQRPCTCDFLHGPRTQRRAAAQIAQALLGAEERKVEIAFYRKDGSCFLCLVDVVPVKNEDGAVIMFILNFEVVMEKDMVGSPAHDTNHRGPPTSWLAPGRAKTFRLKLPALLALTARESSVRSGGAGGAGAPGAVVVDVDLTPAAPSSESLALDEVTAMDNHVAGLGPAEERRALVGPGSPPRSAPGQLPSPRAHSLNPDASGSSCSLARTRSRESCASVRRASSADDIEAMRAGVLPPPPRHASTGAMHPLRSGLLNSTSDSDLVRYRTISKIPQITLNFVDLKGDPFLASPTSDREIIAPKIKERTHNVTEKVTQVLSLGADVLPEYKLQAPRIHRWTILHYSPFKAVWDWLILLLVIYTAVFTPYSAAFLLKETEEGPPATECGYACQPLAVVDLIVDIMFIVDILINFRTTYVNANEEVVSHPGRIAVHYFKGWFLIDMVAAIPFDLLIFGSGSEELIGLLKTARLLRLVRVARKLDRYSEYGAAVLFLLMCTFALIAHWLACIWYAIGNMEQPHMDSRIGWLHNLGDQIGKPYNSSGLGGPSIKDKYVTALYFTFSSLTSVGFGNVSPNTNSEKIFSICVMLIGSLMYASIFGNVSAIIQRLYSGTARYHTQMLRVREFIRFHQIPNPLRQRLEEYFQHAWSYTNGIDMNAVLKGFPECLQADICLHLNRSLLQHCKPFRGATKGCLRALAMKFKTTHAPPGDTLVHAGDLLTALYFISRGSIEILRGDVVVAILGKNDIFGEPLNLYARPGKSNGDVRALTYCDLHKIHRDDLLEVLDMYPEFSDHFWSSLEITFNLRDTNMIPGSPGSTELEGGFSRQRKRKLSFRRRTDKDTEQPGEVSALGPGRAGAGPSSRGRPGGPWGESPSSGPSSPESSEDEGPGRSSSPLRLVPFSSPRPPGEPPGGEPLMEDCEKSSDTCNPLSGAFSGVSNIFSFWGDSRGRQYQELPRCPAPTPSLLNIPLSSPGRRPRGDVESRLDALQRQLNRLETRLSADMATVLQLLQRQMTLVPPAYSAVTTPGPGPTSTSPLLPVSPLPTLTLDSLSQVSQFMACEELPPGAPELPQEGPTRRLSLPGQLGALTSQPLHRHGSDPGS
# Beta-2 adrenergic receptor, sequence (P07550 whole entry): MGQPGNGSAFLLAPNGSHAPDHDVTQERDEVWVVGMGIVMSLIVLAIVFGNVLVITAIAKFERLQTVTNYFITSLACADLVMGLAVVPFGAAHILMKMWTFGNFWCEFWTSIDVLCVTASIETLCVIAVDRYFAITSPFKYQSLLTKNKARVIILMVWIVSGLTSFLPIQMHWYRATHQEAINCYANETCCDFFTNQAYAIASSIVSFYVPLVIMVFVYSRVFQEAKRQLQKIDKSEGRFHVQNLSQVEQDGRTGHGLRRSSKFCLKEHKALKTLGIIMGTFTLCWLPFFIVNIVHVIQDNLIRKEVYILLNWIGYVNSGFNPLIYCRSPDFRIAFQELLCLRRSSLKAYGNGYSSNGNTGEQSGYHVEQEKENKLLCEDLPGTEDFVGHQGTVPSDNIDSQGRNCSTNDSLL
smiles,measurement,setting,value
CCCC(CCC)C(=O)O[C@H]1C[C@H]2CC[C@@H](C1)[N+]2(C)C [ANISOTROPINE],AC50,[1],> 30 µM
same,AC50,[2],2.1 µM
same,AC50,Mu-type opioid receptor [3],> 30 µM
same,AC50,[4],26 µM
same,AC50,Adenosine receptor A1,> 30 µM
same,AC50,[5],> 30 µM
same,AC50,[6],28 µM
same,AC50,[7],> 30 µM
CC(=O)OCC(=O)[C@@]12OC3(CCCC3)O[C@@H]1C[C@H]1[C@@H]3CCC4=CC(=O)C=C[C@]4(C)[C@@]3(F)[C@@H](O)C[C@@]12C [AMCINONIDE],AC50,[8],> 10 µM
same,AC50,Mu-type opioid receptor [9],> 30 µM
same,AC50,Estrogen receptor,> 30 µM
same,AC50,[2],17.3 µM
same,AC50,Mu-type opioid receptor [3],> 30 µM
same,AC50,[4],> 10 µM
same,AC50,Melanocortin receptor 4,> 10 µM
same,AC50,Adenosine receptor A1,> 10 µM
same,AC50,[5],> 10 µM
same,AC50,[6],> 30 µM
same,AC50,[7],> 10 µM
same,AC50,Cannabinoid receptor 1,4.25 µM
CC1=CC(=O)c2ccccc2C1=O [MENADIONE],AC50,[8],> 30 µM
same,AC50,Mu-type opioid receptor [9],> 30 µM
same,AC50,Estrogen receptor,> 30 µM
same,AC50,[2],> 30 µM
same,AC50,Mu-type opioid receptor [3],> 30 µM
same,AC50,[4],> 10 µM
same,AC50,Melanocortin receptor 4,> 10 µM
same,AC50,Adenosine receptor A1,> 30 µM
same,AC50,[5],> 10 µM
same,AC50,[6],> 30 µM
same,AC50,[7],> 10 µM
same,AC50,Cannabinoid receptor 1,> 10 µM
O=C(CCCCC(=O)Nc1c(I)cc(I)c(C(=O)O)c1I)Nc1c(I)cc(I)c(C(=O)O)c1I [IODIPAMIDE],AC50,[8],> 30 µM
same,AC50,Mu-type opioid receptor [9],> 30 µM
same,AC50,Estrogen receptor,> 10 µM
same,AC50,[2],> 30 µM
same,AC50,Mu-type opioid receptor [3],> 30 µM
same,AC50,[4],> 10 µM
same,AC50,Melanocortin receptor 4,> 10 µM
same,AC50,Adenosine receptor A1,> 10 µM
same,AC50,[5],> 10 µM
same,AC50,[6],> 30 µM
same,AC50,[7],> 10 µM
same,AC50,Cannabinoid receptor 1,> 10 µM
CN[C@@H]1[C@H](O)[C@H](NC)[C@H]2O[C@@]3(O)C(=O)C[C@@H](C)O[C@H]3O[C@@H]2[C@H]1O [SPECTINOMYCIN],AC50,[8],> 10 µM
same,AC50,Mu-type opioid receptor [9],> 30 µM
same,AC50,Estrogen receptor,> 10 µM
same,AC50,[2],> 30 µM
same,AC50,[4],> 10 µM
same,AC50,Melanocortin receptor 4,> 10 µM
same,AC50,Adenosine receptor A1,> 10 µM
same,AC50,[5],> 10 µM
same,AC50,[6],> 30 µM
same,AC50,[7],> 30 µM
same,AC50,Cannabinoid receptor 1,> 10 µM
COc1ccc2cccc(CCNC(C)=O)c2c1 [AGOMELATINE],AC50,[8],> 10 µM
same,AC50,Mu-type opioid receptor [9],> 30 µM
same,AC50,Estrogen receptor,> 30 µM
same,AC50,[2],> 30 µM
same,AC50,Mu-type opioid receptor [3],> 30 µM
same,AC50,[4],> 10 µM
same,AC50,Melanocortin receptor 4,> 30 µM
same,AC50,Adenosine receptor A1,> 30 µM
same,AC50,[5],> 10 µM
same,AC50,[6],> 30 µM
same,AC50,[7],> 30 µM
same,AC50,Cannabinoid receptor 1,> 10 µM
COc1c(N2CCNC(C)C2)c(F)cc2c(=O)c(C(=O)O)cn(C3CC3)c12 (centres undefined) [GATIFLOXACIN],AC50,[8],> 30 µM
same,AC50,Mu-type opioid receptor [9],> 30 µM
same,AC50,[2],24 µM
same,AC50,Mu-type opioid receptor [3],28 µM
same,AC50,[4],> 10 µM
same,AC50,Melanocortin receptor 4,> 10 µM
same,AC50,Adenosine receptor A1,> 10 µM
same,AC50,[5],> 10 µM
same,AC50,[6],> 30 µM
same,AC50,[7],> 10 µM
same,AC50,Cannabinoid receptor 1,> 10 µM
CN1C(=O)CC(=O)N(c2ccccc2)c2cc(Cl)ccc21 [CLOBAZAM],AC50,[8],> 10 µM
same,AC50,Mu-type opioid receptor [9],> 30 µM
same,AC50,Estrogen receptor,> 10 µM
same,AC50,[2],> 30 µM
same,AC50,[4],> 10 µM
same,AC50,Melanocortin receptor 4,> 10 µM
same,AC50,Adenosine receptor A1,> 10 µM
same,AC50,[5],> 10 µM
same,AC50,[6],> 10 µM
same,AC50,[7],> 10 µM
same,AC50,Cannabinoid receptor 1,> 10 µM
